The values below come from US10052330B2, “Substituted pyrido[3,4-b]pyrazines as Syk inhibitors” (HUTCHISON MEDIPHARMA LIMITED, priority 2011, dated 2018).

SMILES strings stand for the structures.

A word on the IC50: it is the midpoint of a concentration-inhibition curve.

The subject of one experiment is RBL-2H3 cells. Briefly: IgE-induced Beta-hexosaminidase secretion in RBL-2H3 cells. To be noted: Rattus norvegicus, RBL-2H3, RBL-2H3 cells sensitized with SPE-7, stimulated with DNP-BSA; upper bound of each range is 'less than'; read-out: IC50, IgE-induced Beta-hexosaminidase secretion. Format: cell-based.
For experiment [1], the system named is Bone marrow mast cells (BMMCs). The experiment in a line: IgE-induced LAT phosphorylation in bone marrow mast cells. Type of experiment: cell-based, mice. To be noted: Mus musculus, BMMC; BMMCs from female BALB/C mice, sensitized with SPE-7, stimulated with DNP-BSA; upper bound is 'less than'; read-out: IC50, IgE-induced LAT phosphorylation.
In a further experiment the target is Syk kinase (Homo sapiens, UniProt P43405). The experiment in a line: Syk kinase enzymatic assay (Kit-Tyr 2 Peptide). Type of experiment: biochemical. To be noted: 8 concentrations, 1 μM down to 0.0003 μM; upper bound of each range is 'less than'; read-out: IC50: Enzymatic Activity (Syk kinase).

`Nc1ccc(-c2cc3nccnc3c(NC[C@H]3CCCNC3)n2)cc1Cl` [Compound 81]: the figures for the half-inhibitory concentration (IC50) (in the experiment with RBL-2H3 cells; in experiment [1]; on Syk kinase) were 100 to 1000 nM, 100 to 1000 nM and 1 to 100 nM, respectively.
For the compound `CNc1ccc(-c2cc3nccnc3c(NC[C@H]3CCCNC3)n2)cc1` [Compound 82], the values for the concentration for half-maximal inhibition (IC50) (with RBL-2H3 cells; in experiment [1]; on Syk kinase) were 1 to 100 nM, 100 to 1000 nM and 1 to 100 nM, respectively.
Take `OC[C@H]1CCN(c2nc(-c3ccc(N4CCOCC4)cc3)cc3nccnc23)C1` [Compound 163, (S)-(1-(7-(4-morpholinophenyl)pyrido[4,3-b]pyrazin-5-yl)pyrrolidin-3-yl)methanol]: the IC50 lay within 1 to 100 nM with RBL-2H3 cells, 100 to 1000 nM in experiment [1] and 100 to 1000 nM on Syk kinase.
For `COc1ccc(-c2cc3nccnc3c(NC[C@H]3CCCNC3)n2)cc1F` [Compound 35], the IC50 with RBL-2H3 cells is 1 to 100 nM; in experiment [1] it was 100 to 1000 nM; at Syk kinase it was 1 to 100 nM.
As for `CNc1ccc(-c2cc3nccnc3c(NC[C@H]3CCCNC3)n2)cc1F` [Compound 140], the IC50 in the experiment on RBL-2H3 cells lay in the range of 1 to 100 nM; in experiment [1], 100 to 1000 nM; at Syk kinase, 1 to 100 nM.
As to `CN(C)c1ccc(-c2cc3nccnc3c(NCCCN)n2)cc1` [Compound 185], the figures for the 50% inhibitory concentration (IC50) (in the experiment with RBL-2H3 cells; in experiment [1]; at Syk kinase) were 100 to 1000 nM, 100 to 1000 nM and 1 to 100 nM, respectively.
Turning to `CNc1ccc(-c2cc3nccnc3c(NCC3CCCNC3)n2)cc1` (centres unmarked) [Compound 44], the half-inhibitory concentration (IC50) in the experiment on RBL-2H3 cells lay in the range of 1 to 100 nM; in experiment [1], 100 to 1000 nM; on Syk kinase it was 1 to 100 nM.
As for `c1cc(CNc2nc(-c3ccc(N4CCOCC4)cc3)cc3nccnc23)ccn1` [Compound 184], the half-maximal inhibitory concentration (IC50) (with RBL-2H3 cells; in experiment [1]) was 100 to 1000 nM throughout.
`CN(C)c1ccc(-c2cc3nccnc3c(NCC3CCCNC3)n2)cc1` (centres unmarked) [Compound 12]: the half-maximal inhibitory concentration (IC50) in the experiment with RBL-2H3 cells was in the range of 1 to 100 nM; in experiment [1], 100 to 1000 nM; on Syk kinase, 1 to 100 nM.
In the case of `Cc1cc(-c2cc3nccnc3c(NC[C@H]3CCCNC3)n2)ccc1N1CCOCC1` [Compound 94], the figures for the IC50 (in the experiment with RBL-2H3 cells; in experiment [1]; on Syk kinase) were 100 to 1000 nM, 100 to 1000 nM and 1 to 100 nM, respectively.
As to `FC1CNCC(CNc2nc(-c3ccc(N4CCOCC4)cc3)cc3nccnc23)C1` (centres unmarked) [Compound 156], the figures for the half-maximal inhibitory concentration (IC50) (in the experiment on RBL-2H3 cells; in experiment [1]; at Syk kinase) were 1 to 100 nM, 100 to 1000 nM and 1 to 100 nM, respectively.
Take `COc1ccc(-c2cc3nccnc3c(NCC3CCCNC3)n2)cc1` (centres unmarked) [Compound 10]: the concentration for half-maximal inhibition (IC50) in the experiment on RBL-2H3 cells fell in the range of 100 to 1000 nM; in experiment [1], 100 to 1000 nM; on Syk kinase, 1 to 100 nM.
Take `c1cnc2c(NC[C@H]3CCCNC3)nc(-c3ccc(N4CCCC4)cc3)cc2n1` [Compound 70]: the IC50 with RBL-2H3 cells fell in the range of 1 to 100 nM; in experiment [1], 100 to 1000 nM; at Syk kinase, 1 to 100 nM.
Consider `COc1ccc(-c2cc3nccnc3c(NC[C@H]3CCCNC3)n2)cc1Cl` [Compound 93], for which the IC50 with RBL-2H3 cells was 1 to 100 nM; in experiment [1], 100 to 1000 nM; on Syk kinase, 1 to 100 nM.
As for `NC(=O)CCNc1nc(-c2ccc(N3CCOCC3)cc2)cc2nccnc12` [Compound 188], the 50% inhibitory concentration (IC50) in the experiment with RBL-2H3 cells lay within 1 to 100 nM; in experiment [1], 100 to 1000 nM; at Syk kinase it was 100 to 1000 nM.
Regarding `c1cnc2c(N3CCC4(CCNC4)C3)nc(-c3ccc(N4CCOCC4)cc3)cc2n1` (centres unmarked) [Compound 71], the results for the IC50 (in the experiment with RBL-2H3 cells; in experiment [1]; at Syk kinase) were 100 to 1000 nM, 100 to 1000 nM and 1 to 100 nM, respectively.
Take `CN(C)c1ccc(-c2cc3nccnc3c(NC[C@@H]3CNCCO3)n2)cc1` [Compound 107]: the values for the IC50 (in the experiment with RBL-2H3 cells; in experiment [1]; on Syk kinase) were 1 to 100 nM, 100 to 1000 nM and 1 to 100 nM, respectively.
Take `Cc1cc(-c2cc3nccnc3c(NC[C@@H]3CNCCO3)n2)ccc1N1CCOCC1` [Compound 116]: the half-maximal inhibitory concentration (IC50) in the experiment on RBL-2H3 cells fell in the range of 1 to 100 nM; in experiment [1], 100 to 1000 nM; at Syk kinase it was 1 to 100 nM.
For `CNc1ccc(-c2cc3nccnc3c(NC[C@@H]3CNCCO3)n2)cc1F` [Compound 137], the results for the IC50 (in the experiment with RBL-2H3 cells; in experiment [1]; on Syk kinase) were 1 to 100 nM, 100 to 1000 nM and 1 to 100 nM, respectively.
`C[C@H](O)CNc1nc(-c2ccc(N3CCOCC3)cc2)cc2nccnc12` [Compound 161]: the IC50 (with RBL-2H3 cells; in experiment [1]; on Syk kinase) was 100 to 1000 nM throughout.
As for `c1cnc2c(N3CCC4(CCCNC4)C3)nc(-c3ccc(N4CCOCC4)cc3)cc2n1` (centres unmarked) [Compound 105], the 50% inhibitory concentration (IC50) is 1 to 100 nM with RBL-2H3 cells, 100 to 1000 nM in experiment [1] and 1 to 100 nM at Syk kinase.
On to `c1cnc2c(NC3CC3)nc(-c3ccc(N4CCOCC4)cc3)cc2n1` [Compound 181], for which the concentration for half-maximal inhibition (IC50) (in the experiment on RBL-2H3 cells; in experiment [1]) was 100 to 1000 nM each time.
`NC(=O)C1CCN(c2nc(-c3ccc(N4CCOCC4)cc3)cc3nccnc23)C1` (centres unmarked) [Compound 179]: the 50% inhibitory concentration (IC50) with RBL-2H3 cells lay in the range of 100 to 1000 nM; on Syk kinase it was 1 to 100 nM.
`CC1(C(=O)N2CCN(c3ccc(-c4cc5nccnc5c(NC[C@@H]5CNCCO5)n4)cc3)CC2)CC1` [Compound 402]: the IC50 with RBL-2H3 cells and at Syk kinase was 1 to 100 nM throughout.
With `OC[C@@H]1CCN(c2nc(-c3ccc(N4CCOCC4)cc3)cc3nccnc23)C1` [Compound 159, (R)-(1-(7-(4-morpholinophenyl)pyrido[4,3-b]pyrazin-5-yl)pyrrolidin-3-yl)methanol], the IC50 is 1 to 100 nM in the experiment with RBL-2H3 cells, 100 to 1000 nM in experiment [1] and 100 to 1000 nM at Syk kinase.
In the case of `OCCCOc1ccc(-c2cc3nccnc3c(NC[C@@H]3CNCCO3)n2)cc1` [Compound 476, (S)-3-(4-(5-(morpholin-2-ylmethylamino)pyrido[4,3-b]pyrazin-7-yl)phenoxy)propan-1-ol], the IC50 in the experiment with RBL-2H3 cells and at Syk kinase was 1 to 100 nM each time.
On to `c1cnc2c(NC[C@@H]3CNCCO3)nc(-c3ccc(N4CCOCC4)nc3)cc2n1` [Compound 99], for which the half-inhibitory concentration (IC50) lay in the range of 1 to 100 nM with RBL-2H3 cells, 100 to 1000 nM in experiment [1] and 1 to 100 nM at Syk kinase.
Consider `Cc1ccc(-c2cc3nccnc3c(NC[C@H]3CCCNC3)n2)cc1Cl` [Compound 80], for which the figures for the IC50 in the experiment on RBL-2H3 cells and on Syk kinase were 100 to 1000 nM and 1 to 100 nM, respectively.
`CN(c1ccc(-c2cc3nccnc3c(NC[C@@H]3CNCCO3)n2)cc1)C1CCOCC1` [Compound 285]: the half-maximal inhibitory concentration (IC50) in the experiment with RBL-2H3 cells and at Syk kinase was 1 to 100 nM throughout.
